Numbers after ± are expanded uncertainties.
Assays:
[1] = Molar enthalpy of transition or fusion; settings: DSC
[2] = for thermal conductivity: 101.33 kPa, T-histrory method; for Triple point temperature: DSC

Molar enthalpy of transition or fusion ([1]; Crystal 1): 1.4 ± 0.0645 kcal/mol
Molar enthalpy of transition or fusion ([1]; Crystal 2): 8.59 ± 0.382 kcal/mol
thermal conductivity ([2]; 340.65 K, Crystal 2): 0.112 ± 0.007 W/m/K
thermal conductivity ([2]; 395.65 K, Crystal 2): 0.108 ± 0.007 W/m/K
thermal conductivity ([2]; 450.65 K, Crystal 2): 0.104 ± 0.006 W/m/K
Triple point temperature ([2]; Crystal 1): 531.25 ± 0.8 K
Triple point temperature ([2]; Crystal 2): 454.55 ± 0.8 K
Compound: OCC(CO)(CO)CO [2,2-bis(hydroxymethyl)-1,3-propanediol]
